Tests used:
[1] = Gastrointestinal symptoms after administration of solid dosage form (capsules); assay type: in vivo
Procedure: (§1) Furthermore, the non-hygroscopic nature of the acid form makes it desirable as active pharmaceutical ingredient. To further protect against any possible gastrointestinal intolerance that could result from the acid form, the tablets were enteric-coated and a modified-release agent was added to control any rapid release of the drug in the stomach and the intestine, respectively.

[2] = Single rising oral dose pharmacokinetics of NC-758 in healthy young and elderly male volunteers (Example 7); assay type: in vivo, human; settings: for Tmax: median
Description: (§2) In the following examples and elsewhere herein, terms are as defined below. The pharmacokinetic parameters were derived by non-compartmental analysis using WinNonlin Version 2.1. • Cmax—the maximum observed plasma concentration. • Tmax—the time of occurrence of Cmax. • AUC0-t—the area under the plasma concentration versus time curve from time zero to the last sampling time at which concentrations were at or above the limit of quantification, calculated by the linear trapezoidal rule. • AUC∞—the area under the plasma concentrations versus time curve from time zero to infinity, calculated from AUC0-t+(Clast/λz), where Clast is the last observed quantifiable concentration and λz is the apparent terminal rate constant. • t1/2—the apparent terminal half-life, calculated from 1n 2λz.
The pharmacokinetic profile and the effect of food on single rising oral doses of 3-APS free acid (modified-release enteric-coated tablet, as described in Table 3 above, hereinafter “NC-758”) in healthy male young (18-45 years) volunteers was determined. The pharmacokinetics of a single oral dose of NC-758 was also determined in a group of healthy male elderly (≧55 years old) volunteers. The test was a randomized, double-blind, placebo-controlled study to assess the pharmacokinetic profile of 4 single rising oral doses of NC-758 in healthy young (18-45 years) male subjects. Blood samples were collected during 24 h following dosing. Plasma concentrations of 3-APS were determined using a validated LC-MS/MS method.

[3] = Part I: multiple rising oral dose pharmacokinetics of NC-758 in healthy young and elderly subjects (Example 8); assay type: in vivo, human; settings: fasted; for Tmax: median
Description: as §2
The pharmacokinetic profile of multiple rising oral doses of 3-APS free acid (NC-758 of Table 3 above) in healthy male young subjects (18-45 years) and healthy male and female elderly (≧55 years) subjects was assessed. The pharmacokinetic profile of a titrated multiple oral rising dose regimen of NC-758 was also assessed in one group of healthy male young (18-45 years) subjects. […] Part I was a randomized, double-blind, placebo-controlled study to assess the pharmacokinetic profile of 2 multiple rising oral doses of NC-758 in healthy young (18-45 years) male subjects. […] In Part I, blood samples were collected through 24 h after the first dose on Day 1, before each morning dose on Days 2 to 11, and through 48 h after the final dose on Day 12. For Part II, blood samples were collected through 36 and 48 h, respectively. Plasma concentrations of 3-APS were determined using a validated LC-MS/MS method.

[4] = Single oral dose pharmacokinetics of NC-758-1 in healthy elderly volunteers (Example 9); assay type: in vivo, human; settings: elderly (≧55 years) male and female subjects, fasted; for Tmax: median
Description: as §2
The pharmacokinetic profile and the effect of food on single oral doses of 3-APS free acid (modified-release enteric-coated tablet as described in Table 5 above, hereinafter “NC-758-1”) in healthy male and female elderly (≧55 years) volunteers. The test was an open label, three-period crossover study to assess the pharmacokinetic profile of 3 single oral doses of NC-758-1 in healthy elderly (≧55 years) male and female subjects. The blood samples were collected during 24 h following dosing. Plasma concentrations of 3-APS were determined using a validated LC-MS/MS method.

[5] = Pharmacokinetics of NC-758-1 in mild to moderate Alzheimer's Disease patients, 12 weeks BID (Example 10); assay type: in vivo; settings: human, plasma, oral, AD patients; for AUC(0-inf): only patients with estimable elimination rate constant; for Tmax: median
Description: as §2
A multicenter, randomized, double-blind, placebo-controlled and parallel designed study has been completed with NC-758-1 from Table 5 above in patients suffering from mild to moderate Alzheimer's Disease (AD). This study included assessing the pharmacokinetic/pharmacodynamic profile in AD patients.
A total of fifty-eight (58) mild to moderate AD patients (MMSE scores=13 to 26) were enrolled from 6 centers in the United States. Patients were randomized to receive in 1:1:1:1 ratio of NC-758-1 at 50, […], 150 mg BID or placebo BID for 12 weeks. Study medication was administered orally (tablet). Each patient was evaluated on 6 occasions at screening, baseline [Week 0], weeks 2, 4, 8 and 12. Blood samples were collected from each patient prior to dosing and at specified time points through 12 h post-dose after the first dose (Week 0) and the last dose (Week 12). Blood samples were also collected prior to the first dose of the day during Week 2, 4 and 8 visits.

[6] = dog, in vivo
Procedure: as §1

[7] = Hygroscopic nature of the active ingredient; assay type: physicochemical
[8] = Crossing of the blood/brain barrier; set-up: species or system human; settings: in vivo
[9] = tested on: CSF Aβ42; assay: CSF Aβ42 and Aβ42/Aβ40 ratio in mild-to-moderate AD patients; assay type: in vivo, human
Procedure: FIG. 1 Change from Baseline CSF Aβ42 versus 3-APS doses
FIG. 2 Effect of 3-APS on CSF Aβ42/40 Ratio in Mild-to-Moderate AD Patients—Placebo vs. 150 mg BID

[10] = Pharmacokinetics of NC-758-1 in mild to moderate Alzheimer's Disease patients, 12 weeks BID (Example 10); assay type: in vivo; settings: human, plasma, oral, AD patients; for Tmax: median
[11] = 200 mg dose, elderly vs. young (Tables 9 and 10)
[12] = 50 mg, Alzhemed (NC-758-1) 50 mg BID, Week 0 (single dose), mean
[13] = 150 mg, Alzhemed (NC-758-1) 150 mg BID, Week 0 (single dose), mean

With `NCCCS(=O)(=O)[O-].[Na+]` [3-amino-1-propanesulfonic acid, sodium salt] the “gastrointestinal symptoms (i.e. nausea and vomiting)” value [1] was “associated with gastrointestinal symptoms”.

In the case of `NCCCS(=O)(=O)O` [3-APS, 3-amino-1-propanesulfonic acid], the “AUC0-t greater in elderly subjects compared to young subjects” value [2, 11] is reported as “approximately 70%”, the “Cmax greater in elderly subjects compared to young subjects” value [2, 11] is reported as “approximately 70%” and the Tmax ([2]; NC-758 single oral 200 mg, elderly (>55 years) male subjects, fasted) is reported as 5 h. The Tmax ([2]; NC-758 single oral 200 mg, young (18-45 years) male subjects, fasted) was 5 h, the Tmax ([2]; NC-758 single oral 300 mg, young (18-45 years) male subjects, fasted) was 5 h and the Tmax ([2]; human, plasma, NC-758 single oral 100 mg, young (18-45 years) male subjects, fasted, read-out: Tmax) was 5 h. For the same compound, the AUC(0-inf) ([2]; human, plasma, NC-758 single oral 200 mg, elderly (>55 years) male subjects, fasted, calculated for one individual only) was 5760 ng·h/mL, the Tmax ([3]; NC-758 200 mg BID, Day 1, elderly (≧55 years) male and female subjects) was 6 h and the Tmax ([3]; NC-758 200 mg BID, Day 12, young (18-45 years) male subjects) was 4 h. The Tmax ([3]; both sexes, human, plasma, oral, 200 mg, NC-758 200 mg BID, Day 12, elderly (≧55 years) male and female subjects, read-out: Tmax) was 5 h, the AUC(0-t) ([3]; human, plasma, oral, NC-758 100 mg BID, Day 1, young (18-45 years) male subjects, mean, read-out: AUC0-12 h) was 1330 ng·h/mL and the Tmax ([3]; male, human, plasma, oral, 100 mg, NC-758 100 mg BID, Day 1, young (18-45 years) male subjects, read-out: Tmax) was 6 h. It also gave a Tmax ([3]; male, human, plasma, oral, 100 mg, NC-758 100 mg BID, Day 12, young (18-45 years) male subjects, read-out: Tmax) of 2.5 h, a Tmax ([3]; male, human, plasma, oral, 200 mg, NC-758 200 mg BID, Day 1, young (18-45 years) male subjects, read-out: Tmax) of 4 h and a Tmax ([4]; NC-758-1 single oral 50 mg) of 5 h. The Tmax ([4]; NC-758-1 single oral 100 mg) was 5 h, the “AUC∞” value ([4]; NC-758-1 single oral 150 mg, mean, only subjects with estimable elimination rate constant) was 4497 ng·h/mL and the Tmax ([4]; NC-758-1 single oral 150 mg) was 5 h. The AUC(0-t) [5, 12] was ~1320 ng·h/mL, the Cmax [5, 12] was ~310 ng/mL and the AUC(0-inf) [5, 12] was ~1400 ng·h/mL. It also gave a Tmax ([5]; 50 mg, Alzhemed (NC-758-1) 50 mg BID, Week 0 (single dose)) of ~6 h, a Cmax [5, 13] of ~624 ng/mL and an AUC(0-inf) [5, 13] of ~3420 ng·h/mL. The Tmax ([5]; 150 mg, Alzhemed (NC-758-1) 150 mg BID, Week 0 (single dose)) was ~6 h, the Cmax ([5]; 150 mg, Alzhemed (NC-758-1) 150 mg BID, Week 12 (repeated), mean) was 639 ng/mL and the tolerability [6] was “better tolerated than the sodium salt form”. For the same compound, the hygroscopic nature [7] was “non-hygroscopic”, the “crossing of the blood/brain barrier” value [8] was “crossed the blood/brain barrier” and the “ratio of Aβ42/Aβ40” value ([9]; CSF, mild-to-moderate AD patients, FIGS. 2, 3 and 4) was “reduced the ratio of Aβ42/Aβ40”. The “baseline CSF Aβ42” value ([9]; FIG. 1) was “reduced baseline CSF Aβ42”, the Cmax ([10]; 50 mg, Alzhemed (NC-758-1) 50 mg BID, Week 12 (repeated), mean) was 451 ng/mL and the AUC(0-t) ([10]; 50 mg, Alzhemed (NC-758-1) 50 mg BID, Week 12 (repeated), mean, read-out: AUC0-t (AUCss for Week 12)) was 1980 ng·h/mL. The Tmax ([10]; 50 mg, Alzhemed (NC-758-1) 50 mg BID, Week 12 (repeated)) was 3 h, the Cmax ([10]; 100 mg, Alzhemed (NC-758-1) 100 mg BID, Week 0 (single dose), mean) was ~618 ng/mL and the AUC(0-inf) ([10]; 100 mg, Alzhemed (NC-758-1) 100 mg BID, Week 0 (single dose), mean, only patients with estimable elimination rate constant) was ~2570 ng·h/mL. The AUC(0-t) ([10]; 100 mg, Alzhemed (NC-758-1) 100 mg BID, Week 0 (single dose), mean, read-out: AUC0-t) was ~2470 ng·h/mL, the Tmax ([10]; 100 mg, Alzhemed (NC-758-1) 100 mg BID, Week 0 (single dose)) was ~4.7 h and the Cmax ([10]; 100 mg, Alzhemed (NC-758-1) 100 mg BID, Week 12 (repeated), mean) was 538 ng/mL. For the same compound, the AUC(0-t) ([10]; 100 mg, Alzhemed (NC-758-1) 100 mg BID, Week 12 (repeated), mean, read-out: AUC0-t (AUCss for Week 12)) was 2590 ng·h/mL, the Tmax ([10]; 100 mg, Alzhemed (NC-758-1) 100 mg BID, Week 12 (repeated)) was 3.5 h and the AUC(0-t) ([10]; 150 mg, Alzhemed (NC-758-1) 150 mg BID, Week 0 (single dose), mean, read-out: AUC0-t) was ~2790 ng·h/mL. The AUC(0-t) ([10]; 150 mg, Alzhemed (NC-758-1) 150 mg BID, Week 12 (repeated), mean, read-out: AUC0-t (AUCss for Week 12)) was 3570 ng·h/mL and the Tmax ([10]; 150 mg, Alzhemed (NC-758-1) 150 mg BID, Week 12 (repeated)) was 3 h.
